One assay addresses STIM1 and Orai1 in HEK293 cells (Homo sapiens, UniProt Q96D31).
Test: not given
The following applies: HEK293 cells coexpressing STIM1 and Orai1; cited from earlier work.
Sequence of STIM1 and Orai1 in HEK293 cells (Q96D31 whole entry): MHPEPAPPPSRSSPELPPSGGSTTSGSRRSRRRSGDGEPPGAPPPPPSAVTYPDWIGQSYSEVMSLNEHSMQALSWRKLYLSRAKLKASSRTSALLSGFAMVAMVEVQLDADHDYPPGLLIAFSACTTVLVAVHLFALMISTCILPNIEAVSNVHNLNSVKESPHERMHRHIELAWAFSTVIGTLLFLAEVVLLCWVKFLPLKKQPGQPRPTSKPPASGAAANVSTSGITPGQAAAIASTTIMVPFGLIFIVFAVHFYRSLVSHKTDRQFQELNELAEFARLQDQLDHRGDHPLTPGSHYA
For the molecule `NCCOB(c1ccccc1)c1ccccc1` [2-aminoethoxydiphenylborate], the “block of store-operated Ca2+ entry” value is “completely blocked”.

In the next assay the test system is JR251 or RBL cells. The assay is described as follows: Fluorescence-based store-operated calcium entry assay, IC50 in JR251 or RBL cells. The class given is cell-based. The following applies: in either JR251 or RBL cells, or both. As to the method:
The day prior to performing the assay, RBL-2H3 cells are plated in 50 μL of complete medium in a 384 well plate. Cells are grown at 37° C./6% CO2 overnight and grow to 50-60% confluence by the next day. On the assay day, 1.5 μM Fluo-4-AM dye (Invitrogen) in complete medium is added and incubated for 1 hour at RT. Cells are washed twice in Ca^2+-free HBSS buffer and 35 μL Ca^2+-free HBSS buffer is added to each well. 10 μL of a test compound prepared in a Ca^2+-free HBSS solution at 4.5× of the desired concentration is added to a well and incubated for 5 minutes at RT. 10 μL of thapsigargin prepared in a Ca^2+-free HBSS solution at 5.5× of the desired concentration (5.5 uM) is added to each well and incubated for an additional 25 minutes. The initial baseline fluorescence signal is measured with a FLIPR^384 (Molecular Devices) plate reader. 5 μL of 12× calcium in HBSS (12 mM) is added and changes in cellular fluorescence are measured with the FLIPR^384 plate reader. In each well, the change in the fluorescent signal as a function of time due to calcium entry into the cell is determined by calculating the difference between the fluorescent signal measured 7 seconds after calcium addition and the initial baseline fluorescence signal at time zero (t=0). This parameter is designated Upslope. The IC50 value is calculated as the concentration at which 50% of the Upslope is inhibited.
The day prior to performing the assay, Jurkat E6-1 cells are seeded at a density of 2 million cells/mL in complete medium in a T-175 flask. Cells are grown at 37° C./6% CO2 overnight. On the following day, 1.5 μM Fluo-4-AM dye (Invitrogen) in complete medium is added and incubated for 1 hour at RT. Cells are harvested, washed twice in Ca^2+-free HBSS buffer and plated in 35 μL Ca^2+-free HBSS buffer in a 384 well plate. 10 μL of a test compound prepared in a Ca^2+-free HBSS solution at 4.5× of the desired concentration is added to a well and incubated for 5 minutes at RT. 10 μL of thapsigargin prepared in a Ca^2+-free HBSS solution at 5.5× of the desired concentration (5.5 uM) is added to each well and incubated for an additional 25 minutes. The initial baseline fluorescence signal is measured with a FLIPR^384 (Molecular Devices) plate reader. 5 μL of 12× calcium in HBSS (12 mM) is added and changes in cellular fluorescence are measured with the FLIPR^384 plate reader. In each well, the change in the fluorescent signal as a function of time due to calcium entry into the cell is determined by calculating the difference between the fluorescent signal measured 7 seconds after calcium addition and the initial baseline fluorescence signal at time zero (t=0). This parameter is designated Upslope. The IC50 value is calculated as the concentration at which 50% of the Upslope is inhibited.
In the case of `Clc1ccc(C2CC(c3ccco3)=Nc3ccccc3S2)c(Cl)c1` (centres unmarked) [(E)-2-(2,4-dichlorophenyl)-4-(furan-2-yl)-2,3-dihydrobenzo[b][1,4]thiazepine], the IC50 is below 10 µM.
With `COc1ccc(C2CC(c3ccco3)=Nc3ccccc3S2)c(OC)c1` (centres unmarked) [(E)-2-(2,4-dimethoxyphenyl)-4-(furan-2-yl)-2,3-dihydrobenzo[b][1,4]thiazepine], the IC50 was below 10 µM.
As for `Fc1ccccc1C1CC(c2ccco2)=Nc2ccccc2S1` (centres unmarked) [(E)-2-(2-fluorophenyl)-4-(furan-2-yl)-2,3-dihydrobenzo[b][1,4]thiazepine], the IC50 is below 10 µM.
`COc1ccc(C2CC(c3cccs3)=Nc3ccccc3S2)cc1OC` (centres unmarked) [(E)-2-(3,4-dimethoxyphenyl)-4-(thiophen-2-yl)-2,3-dihydrobenzo[b][1,4]thiazepine]: the IC50 was below 10 µM.
The same measure, in the same setting: the value for `FC(F)Oc1ccc(C2CC(c3ccco3)=Nc3ccccc3S2)cc1` (centres unmarked) [(E)-2-(4-(difluoromethoxy)phenyl)-4-(furan-2-yl)-2,3-dihydrobenzo[b][1,4]thiazepine] was below 10 µM; that for `FC(F)Oc1ccc(C2CC(c3cccs3)=Nc3ccccc3S2)cc1` (centres unmarked) [(E)-2-(4-(difluoromethoxy)phenyl)-4-(thiophen-2-yl)-2,3-dihydrobenzo[b][1,4]thiazepine] was below 10 µM; that for `Fc1ccc(C2CC(c3ccco3)=Nc3ccccc3S2)cc1` (centres unmarked) [(E)-2-(4-fluorophenyl)-4-(furan-2-yl)-2,3-dihydrobenzo[b][1,4]thiazepine] was below 10 µM.
Same read-out and setting: next, `Fc1ccc(C2CC(c3cccs3)=Nc3ccccc3S2)cc1` (centres unmarked) [(E)-2-(4-fluorophenyl)-4-(thiophen-2-yl)-2,3-dihydrobenzo[b][1,4]thiazepine]: below 10 µM.
Still for that read-out and setting: next, `FC(F)(F)c1ccc(C2CC(c3ccco3)=Nc3ccccc3S2)cc1` (centres unmarked) [(E)-4-(furan-2-yl)-2-(4-(trifluoromethyl)phenyl)-2,3-dihydrobenzo[b][1,4]thiazepine]: below 10 µM; `COc1ccc(C2CC(c3ccco3)=Nc3ccccc3S2)cc1` (centres unmarked) [(E)-4-(furan-2-yl)-2-(4-methoxyphenyl)-2,3-dihydrobenzo[b][1,4]thiazepine]: below 10 µM; `Cc1ccc(C2CC(c3ccco3)=Nc3ccccc3S2)cc1` (centres unmarked) [(E)-4-(furan-2-yl)-2-p-tolyl-2,3-dihydrobenzo[b][1,4]thiazepine]: below 10 µM.
On to `Cc1ccc(C2CC(c3cccs3)=Nc3ccccc3S2)cc1` (centres unmarked) [(E)-4-(thiophen-2-yl)-2-p-tolyl-2,3-dihydrobenzo[b][1,4]thiazepine], for which the IC50 is below 10 µM.

For a further assay, the system named is Jurkat cells and colon cancer cells.
Test: not given
The following applies: cited from earlier work.
As to `Cc1nnsc1C(=O)Nc1ccc(-n2nc(C(F)(F)F)cc2C(F)(F)F)cc1` [BTP-2], the “inhibition of SOCE and proliferation” value is “inhibits SOCE and proliferation”.
